# Measurements published in paper PMC4829233, “Identification of Novel Chemical Scaffolds Inhibiting Trypanothione Synthetase from Pathogenic Trypanosomatids” (PLoS Neglected Tropical Diseases, 2016).
# “And” between values parts separate entries of the source, which are not always exact repeats. Identical values can stand only once. Like-named read-outs stand apart in the source and are kept apart here.
# Key:
# [1] = tested on: bloodstream Trypanosoma brucei brucei; assay: Proliferation/cytotoxicity assay, infective T. b. brucei; assay type: cell-based; conditions: 24 h, read-out: T. b. Brucei EC50
# [2] = biological target: LiTryS (Leishmania infantum trypanothione synthetase) (Leishmania infantum, UniProt A4I2Z3); assay: biochemical; assay type: biochemical; conditions: for inhibition at 30 µM: read-out: % LiTryS inhibition ± 2σn-1; for activity at 30 µM: read-out: LiTryS Activity ± 2σn-1 (%)
# LiTryS (Leishmania infantum trypanothione synthetase), sequence (A4I2Z3 1-652): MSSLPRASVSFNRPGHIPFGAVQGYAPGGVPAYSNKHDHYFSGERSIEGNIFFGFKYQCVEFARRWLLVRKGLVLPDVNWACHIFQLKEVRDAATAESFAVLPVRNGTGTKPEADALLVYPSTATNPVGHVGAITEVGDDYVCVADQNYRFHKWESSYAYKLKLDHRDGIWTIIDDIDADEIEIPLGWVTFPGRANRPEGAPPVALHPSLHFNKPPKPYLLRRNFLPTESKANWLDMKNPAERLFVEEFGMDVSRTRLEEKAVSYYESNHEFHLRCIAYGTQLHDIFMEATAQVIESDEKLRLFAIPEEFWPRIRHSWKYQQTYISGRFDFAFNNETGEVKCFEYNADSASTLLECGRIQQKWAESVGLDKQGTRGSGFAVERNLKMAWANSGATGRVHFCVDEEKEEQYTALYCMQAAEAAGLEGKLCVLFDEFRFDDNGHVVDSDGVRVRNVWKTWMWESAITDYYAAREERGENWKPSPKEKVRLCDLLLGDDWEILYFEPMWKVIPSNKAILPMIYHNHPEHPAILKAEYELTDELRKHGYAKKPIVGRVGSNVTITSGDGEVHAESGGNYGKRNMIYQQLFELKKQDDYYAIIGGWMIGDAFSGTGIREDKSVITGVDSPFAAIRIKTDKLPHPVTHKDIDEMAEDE
# [3] = biological target: TbTryS (Trypanosoma brucei trypanothione synthetase) (Trypanosoma brucei brucei, UniProt Q8IEX1); assay: biochemical; conditions: for inhibition at 30 µM: read-out: % TbTryS inhibition ± 2σn-1; for activity at 30 µM: read-out: TbTryS Activity ± 2σn-1 (%)
# TbTryS (Trypanosoma brucei trypanothione synthetase), sequence (Q8IEX1 1-627): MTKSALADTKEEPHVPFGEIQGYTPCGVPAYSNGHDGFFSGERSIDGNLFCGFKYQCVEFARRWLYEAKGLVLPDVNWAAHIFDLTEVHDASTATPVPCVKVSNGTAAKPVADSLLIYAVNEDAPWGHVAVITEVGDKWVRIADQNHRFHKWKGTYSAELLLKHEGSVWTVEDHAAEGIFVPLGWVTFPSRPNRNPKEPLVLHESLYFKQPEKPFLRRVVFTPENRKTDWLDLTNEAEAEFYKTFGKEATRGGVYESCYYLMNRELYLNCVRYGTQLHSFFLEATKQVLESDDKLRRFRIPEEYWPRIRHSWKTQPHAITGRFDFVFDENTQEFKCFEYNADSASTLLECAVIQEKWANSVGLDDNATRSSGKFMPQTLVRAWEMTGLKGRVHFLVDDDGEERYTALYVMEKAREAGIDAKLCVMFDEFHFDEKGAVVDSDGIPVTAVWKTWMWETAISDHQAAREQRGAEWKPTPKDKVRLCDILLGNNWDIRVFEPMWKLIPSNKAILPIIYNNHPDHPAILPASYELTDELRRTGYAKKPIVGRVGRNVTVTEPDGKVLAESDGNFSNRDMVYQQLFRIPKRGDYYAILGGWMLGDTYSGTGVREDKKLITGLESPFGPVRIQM
# [4] = biological target: TcTryS (Trypanosoma cruzi trypanothione synthetase) (Trypanosoma cruzi, UniProt Q9GT49); assay: biochemical; assay type: biochemical; conditions: for inhibition at 30 µM: read-out: % TcTryS inhibition ± 2σn-1; for remaining activity at 30 µM: read-out: TcTryS Activity ± 2σn-1 (%)
# TcTryS (Trypanosoma cruzi trypanothione synthetase), sequence (Q9GT49 whole entry): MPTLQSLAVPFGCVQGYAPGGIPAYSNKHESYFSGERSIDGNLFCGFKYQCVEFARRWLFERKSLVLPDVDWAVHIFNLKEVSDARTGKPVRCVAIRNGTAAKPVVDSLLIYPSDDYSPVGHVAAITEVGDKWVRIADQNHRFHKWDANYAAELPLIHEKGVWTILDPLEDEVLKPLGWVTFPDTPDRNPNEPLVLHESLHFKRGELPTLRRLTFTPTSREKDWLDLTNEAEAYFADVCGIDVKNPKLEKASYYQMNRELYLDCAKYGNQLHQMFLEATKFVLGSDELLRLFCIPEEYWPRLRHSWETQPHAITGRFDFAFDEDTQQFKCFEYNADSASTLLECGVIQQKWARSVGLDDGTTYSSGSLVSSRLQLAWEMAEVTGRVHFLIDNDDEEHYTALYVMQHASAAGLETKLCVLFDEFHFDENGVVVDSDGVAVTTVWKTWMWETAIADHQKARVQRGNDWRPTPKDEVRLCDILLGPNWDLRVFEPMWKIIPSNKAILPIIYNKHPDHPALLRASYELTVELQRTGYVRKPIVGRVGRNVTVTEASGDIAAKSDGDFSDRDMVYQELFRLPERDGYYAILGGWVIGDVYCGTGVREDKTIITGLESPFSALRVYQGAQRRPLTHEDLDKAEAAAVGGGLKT
# [5] = tested on: TryS-RNAi T. b. brucei cell line; assay: Cytotoxicity towards T. b. brucei with downregulated TryS expression; conditions: identical assays as for EAP1-47
# Description: The assay conditions to assess the cytotoxicity of compounds towards parasites and murine macrophages (cell line J774) are described in S1 Text. All assays were performed in duplicates or triplicates.
# Total cell extracts from the WT and RNAi-TryS cell lines of T. b. brucei grown in the presence or absence of oxytetracycline were separated under reducing conditions on an SDS / 10% PAGE. The blotted membranes were incubated with mouse polyclonal antibodies against TbTryS (dilution 1:1000) followed by a horseradish peroxidase-conjugated anti-mouse IgG (dilution 1:10000). Reactive bands were detected by chemiluminescence using ECL plus (GE Healthcare) and quantified by densitometric analysis using the free software ImageJ (http://imagej.nih.gov/ij/).
# The growth medium for WT and RNAi-TryS parasites was additionally supplemented with 0.2 µg/mL phleomycin and 2.5 µg/mL G418, and 5 µg/mL hygromycin only for the RNAi-TryS cell line. The RNAi of TryS was induced by adding 10 µg/mL oxytetracycline to the culture medium. […] Parasite viability was assessed in samples from cultures induced 48 h or not with oxytetracycline and grown in the presence and absence of compounds for 24 h, by manual cell counting (24-well culture plate) or flow cytometry (96-well culture plate).
# [6] = tested on: Leishmania infantum promastigotes; assay: Proliferation/cytotoxicity assay, L. infantum promastigotes; assay type: cell-based; conditions: 24 h
# Description: All assays were performed in duplicates or triplicates.
# Leishmania infantum promastigotes were cultured at 28 °C in RPMI 1640 Glutamax supplemented with 10% (v/v) FCS, 10 U ml^-1 penicillin, 10 µg ml^-1 streptomycin and 25 mM HEPES sodium salt pH 7.4. […] Twenty four hours later the number of living parasites was estimated by cell counting under the light microscope using a Neubauer chamber and viability calculated as percentage relative to cultures incubated with the vehicle alone.
# [7] = tested on: NCCCCNCCCN; assay: purified protein, by the assay type; conditions: other: LDH/PK assay, saturating co-substrates; pH 7.4
# [8] = biological target: T1, T. cruzi trypanothione synthetase (TcTryS) (Trypanosoma cruzi, UniProt Q9GT49); assay: biochemical; conditions: apparent Ki GSH, TcTryS strain Tulahuen 0 (His-tagged), LDH/PK assay; substrate inhibition
# T1 sequence (Q9GT49 whole entry): as above
# [9] = biological target: T2, T. b. brucei trypanothione synthetase (TbTryS) (Trypanosoma brucei brucei, UniProt Q8IEX1); conditions: cited from earlier work
# T2 sequence (Q8IEX1 entry or part of it): as the sequence (Q8IEX1 1-627) above
# [10] = biological target: L. infantum trypanothione synthetase (LiTryS) (Leishmania infantum, UniProt A4I2Z3); assay: biochemical; assay type: biochemical
# L. infantum trypanothione synthetase (LiTryS), sequence (A4I2Z3 entry or part of it): as the sequence (A4I2Z3 1-652) above
# [11] = biological target: T. cruzi trypanothione synthetase (TcTryS); conditions: cited from earlier work
# [12] = biological target: T2, T. b. brucei trypanothione synthetase (TbTryS); assay: biochemical
# [13] = tested on: L. major trypanothione synthetase; design: method as in PMID 15610825; conditions: PK/LDH assay, ref [26], cited from earlier work
# [14] = tested on: C. fasciculata trypanothione synthetase (CfTryS); design: method as in PMID 15537651; conditions: ref [23], cited from earlier work
# [15] = biological target: T1, T. cruzi trypanothione synthetase (TcTryS)
compound,measurement,setting,value
"COc1cc(CNCCCCCCCCNCc2ccc(OCc3ccccc3)c(OC)c2)ccc1OCc1ccccc1 [APC1-111, N^1,N^8-bis(4-(benzyloxy)-3-methoxybenzyl)octane-1,8-diamine]",EC50,[1],0.04 ± 0.001 µM
same,LiTryS Activity ± 2σn-1 (%),[2],halved
same,inhibition at 30 µM,[2],49.6%
same,IC50,[2]; read-out: LiTryS IC50 (estimated),~30 µM
same,IC50,[3],≤ 30 µM
same,TbTryS Activity ± 2σn-1 (%),[3],halved
same,inhibition at 30 µM,[3],55.6%
same,activity at 30 µM,[3],44.4%
same,inhibition at 30 µM,[4],28.9%
same,remaining activity at 30 µM,[4],71.1%
COc1cc(CNCCCCCCNCc2ccc(OCc3ccccc3)c(OC)c2)ccc1OCc1ccccc1 [APC1-101],EC50,[1],0.28 ± 0.09 µM
same,inhibition at 30 µM,[2],26.3%
same,activity at 30 µM,[2],73.7%
same,IC50,[3],≤ 30 µM
same,inhibition at 30 µM,[3],61.2%
same,activity at 30 µM,[3],38.8%
same,inhibition at 30 µM,[4],17%
same,remaining activity at 30 µM,[4],83%
Brc1ccc(CNCCCCCCCCCCCCNCc2ccc(Br)cc2)cc1 [EAP1-63],EC50,[1],0.09 ± 0.007 µM
same,difference in potency towards WT or TryS-depleted parasites,[5],did not show differences
same,inhibition at 30 µM,[2],25.9 ± 9.3%
same,activity at 30 µM,[2],74.1%
same,IC50,[3],~30 µM
same,inhibition at 30 µM,[3],~50%
same,inhibition at 30 µM,[4],30.8 ± 3.8%
same,remaining activity at 30 µM,[4],69.2%
Potassium antimonyl tartrate trihydrate [reference compound],"EC50 of control drug, L. infantum promastigotes",[6],20 to 30 µg/mL
T. cruzi trypanothione synthetase (TcTryS) (Trypanosoma cruzi strain CL Brener),Km,[7],685 ± 105 µM and 702 ± 70 µM
"N[C@@H](CCC(=O)N[C@@H](CS)C(=O)NCC(=O)O)C(=O)O [GSH, glutathione]",Ki,[8],1600 µM and 1690 µM
same,Km,"[9]; read-out: KM reported for untagged TbTryS by different laboratories, ref [24], [27]",23.8 to 56.2 µM
same,Ki,"[9]; read-out: Ki GSH reported for untagged TbTryS by different laboratories, ref [24], [27]",36.5 to 143 µM
same,Km,"[9]; read-out: apparent KM, TbTryS strain 427, cell line 449, PK/LDH assay, ref [24]",34 ± 4 µM
same,Km,"[9]; read-out: apparent KM, untagged TbTryS 427 (MITat1.4), PK/LDH coupled assay, ref [27]",56.2 ± 10.7 µM
same,Km,"[9]; read-out: apparent KM, untagged TbTryS 427 (MITat1.4), end-point assay, ref [18]",23.8 ± 2.3 µM
same,Ki,"[9]; read-out: apparent Ki GSH, TbTryS strain 427, cell line 449, PK/LDH assay, ref [24]",143 ± 20 µM
same,Ki,"[9]; read-out: apparent Ki GSH, untagged TbTryS 427 (MITat1.4), PK/LDH coupled assay, ref [27]",36.5 ± 6.7 µM
same,Ki,"[9]; read-out: apparent Ki GSH, untagged TbTryS 427 (MITat1.4), end-point assay, ref [18]",55 ± 6 µM
same,Ki,[10],699 ± 75 µM
same,"apparent Ki/KM GSH, L. infantum TryS",[10],4.1
same,"Ki GSH, TcTryS strain Ninoa","[11]; No = lack of GSH inhibition at 4.5 mM, ref [22]",No^f
same,Km,"[11]; PK/LDH assay, 37 °C, ref [22], read-out: apparent KM, TcTryS strain Ninoa",760 ± 210 µM
same,Km,"[11]; PK/LDH assay, ref [25], read-out: apparent KM, TcTryS strain Silvio X10 clone 7",570 ± 50 µM
same,Ki,"[11]; read-out: apparent Ki GSH, TcTryS strain Silvio X10 clone 7, PK/LDH assay, ref [25]",1200 ± 100 µM
same,"apparent Ki/KM GSH, T. b. brucei TryS",[12],1.8
same,Ki,"[12]; apparent Ki GSH, His-tagged TbTryS 427 (MITat1.4), LDH/PK assay, substrate inhibition",242 µM and 254 µM
same,Km,"[13]; read-out: apparent KM, L. major Friedlin TryS",89 ± 7 µM
same,Ki,"[13]; read-out: apparent Ki GSH, L. major Friedlin TryS",1000 ± 80 µM
same,Km,"[14]; PK/LDH assay, read-out: apparent KM, C. fasciculata TryS (unknown strain)",1180 µM
same,"Ki GSH, C. fasciculata TryS (unknown strain)",[14],Yes
same,"apparent Ki/KM GSH, T. cruzi TryS",[15],13.0
